Experimental data reported in patent US7288537B2, “Azetidine derivatives as CCR-3 receptor antagonists” (Novartis AG, priority 2002, dated 2007).

Tests used:
histamine H1 = histamine H1 (Homo sapiens, UniProt P35367); assay: histamine H1 antagonism
human CCR-3 = molecular target: T1, human CCR-3 (Homo sapiens, UniProt P51677); assay: CCR-3 binding assay (SPA, [125I]-human eotaxin); details: membranes of RBL-2H3 cells stably expressing CCR3, 4 hours at room temperature, read-out: IC50, inhibition of binding of human eotaxin to human CCR-3
T1 construct: expressed in transfected cells; membranes
T1 sequence (P51677 1-355): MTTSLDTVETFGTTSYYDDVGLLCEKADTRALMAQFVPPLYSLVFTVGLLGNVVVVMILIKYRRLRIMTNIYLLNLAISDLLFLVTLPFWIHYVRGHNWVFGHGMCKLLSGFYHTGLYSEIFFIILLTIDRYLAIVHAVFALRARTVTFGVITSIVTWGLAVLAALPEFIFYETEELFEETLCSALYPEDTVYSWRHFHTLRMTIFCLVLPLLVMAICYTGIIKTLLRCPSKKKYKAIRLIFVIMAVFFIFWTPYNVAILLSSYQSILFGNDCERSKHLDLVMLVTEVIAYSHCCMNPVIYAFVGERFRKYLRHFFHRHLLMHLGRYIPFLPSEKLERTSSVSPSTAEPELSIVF
Procedure: In this assay the effect of agents of the invention on the binding of human eotaxin to human CCR-3 is determined. Recombinant cells expressing human CCR-3 are captured by wheatgerm agglutinin (WGA) polyvinyltoluidene (PVT) SPA beads (available from Amersham), through a specific interaction between the WGA and carbohydrate residues of glycoproteins on the surface of the cells. [^125I]-human eotaxin (available from Amersham) binds specifically to CCR-3 receptors bringing the [^125I]-human eotaxin in close proximity to the SPA beads. Emitted â-particles from the [^125I]-human eotaxin excite, by its proximity, the fluorophore in the beads and produce light.
Preparation of Assay Buffer: 5.96 g HEPES and 7.0 g sodium chloride are dissolved in distilled water and 1M aqueous CaCl2 (1 ml) and 1M aqueous MgCl2 (5 ml) are added. The pH is adjusted to 7.6 with NaOH and the solution made to a final volume of 1 L using distilled water. 5 g bovine serum albumin and 0.1 g sodium azide are then dissolved in the solution and the resulting buffer stored at 4° C. A Complete™ protease inhibitor cocktail tablet (available from Boehringer) is added per 50 ml of the buffer on the day of use.
Preparation of Homogenisation Buffer: Tris-base (2.42 g) is dissolved in distilled water, the pH of the solution is adjusted to 7.6 with hydrochloric acid and the solution is diluted with distilled water to a final volume of 1 l. The resulting buffer is stored at 4° C. A Complete™ protease inhibitor cocktail tablet is added per 50 ml of the buffer on the day of use.
Preparation of membranes: Confluent rat basophil leukemia (RBL-2H3) cells stably expressing CCR3 are removed from tissue culture flasks using enzyme-free cell dissociation buffer and resuspended in phosphate-buffered saline. The cells are centrifuged (800 g, 5 minutes), the pellet resuspended in ice-cold homogenisation buffer using 1 ml homogenisation buffer per gram of cells and incubated on ice for 30 minutes. The cells are homogenised on ice with 10 strokes in a glass mortar and pestle. The homogenate is centrifuged (800 g, 5 minutes, 4° C.), the supernatant further centrifuged (48,000 g, 30 minutes, 4° C.) and the pellet redissolved in Homogenisation Buffer containing 10% (v/v) glycerol. The protein content of the membrane preparation is estimated by the method of Bradford (Anal. Biochem. (1976) 72:248) and aliquots are snap frozen and stored at −80° C.
The assay is performed in a final volume of 250 μl per well of an Optiplate™ microplate (ex Canberra Packard). To selected wells of the Optiplate™ are added 50 μl of solutions of a test compound in Assay Buffer containing 5% DMSO (concentrations from 0.01 nM to 10 μM). To determine total binding, 50 μl of the Assay Buffer containing 5% DMSO is added to other selected wells. To determine non-specific binding, 50 μl of 100 nM human eotaxin (ex R&D Systems) in Assay Buffer containing 5% DMSO is added to further selected wells. To all wells are added 50 μl [^125I]-Human eotaxin (ex Amersham) in Assay Buffer containing 5% DMSO at a concentration of […] (to give a final concentration of […]), 50 μl of WGA-PVT SPA beads in Assay Buffer (to give a final concentration of 1.0 mg beads per well) and 100 μl of the membrane preparation at a concentration of 100 μg protein in Assay Buffer (to give a final concentration of 10 μg protein per well). The plate is then incubated for 4 hours at room temperature. The plate is sealed using TopSeal-S™ sealing tape (ex Canberra Packard) according to the manufacturers instructions. The resulting scintillations are counted using a Canberra Packard TopCount™ scintillation counter, each well being counted for 1 minute. The concentration of test compound at which 50% inhibition occurs (IC50) is determined from concentration-inhibition curves in a conventional manner.

[1] = molecular target: alpha-1 adrenergic receptor; assay: alpha-1 adrenergic receptor radioligand binding assay ([125I]-HEAT, cerebral cortex membranes); details: rat cerebral cortex membranes; radioligand used at 40 pM
Procedure: Cerebral cortices from male Sprague-Dawley rats (175-200 g) are dissected and homogenised in 10 volumes of ice cold 0.32 M sucrose (containing 1 mM MgCl2 dihydrate and 1 mM K2HPO4) with a glass/teflon homogeniser. The membranes are centrifuged at 1000×g for 15 miN, the pellet discarded and the centrifugation repeated. The supernatants are pooled and centrifuged at 18,000×g for 15 minutes. The pellet is osmotically shocked in 10 volumes of water and kept on ice for 30 minutes. The suspension is centrifuged at 39,000×g for 20 minutes, resuspended in Krebs-Henseleit buffer pH 7.4 (1.17 mM MgSO4 anhydrous, 4.69 mM KCl, 0.7 mM K2HPO4 anhydrous, 0.11 M NaCl, 11 mM D-glucose and 25 mM NaHCO3) containing 20 mM Tris, and kept for 2 days at −20° C. The membranes are then thawed at 20-23° C., washed three times with Krebs-Henseleit buffer by centrifugation at 18,000×g for 15 minutes, left overnight at 4° C. and washed again three times. The final pellet is resuspended with a glass/teflon homogeniser in 125 ml/100 membranes in the same buffer. […]
The resulting membranes are subjected to a radioligand binding assay. […] Following drying of the plates for 3 h. at 50° C., 40 μl of Microscint 20 is added to each well, the plates incubated at room temperature for a further 20 minutes and the retained radioactivity quantified in a Packard TopCount NXT™ scintillation counter. […]

Sequence of histamine H1 (P35367 whole entry): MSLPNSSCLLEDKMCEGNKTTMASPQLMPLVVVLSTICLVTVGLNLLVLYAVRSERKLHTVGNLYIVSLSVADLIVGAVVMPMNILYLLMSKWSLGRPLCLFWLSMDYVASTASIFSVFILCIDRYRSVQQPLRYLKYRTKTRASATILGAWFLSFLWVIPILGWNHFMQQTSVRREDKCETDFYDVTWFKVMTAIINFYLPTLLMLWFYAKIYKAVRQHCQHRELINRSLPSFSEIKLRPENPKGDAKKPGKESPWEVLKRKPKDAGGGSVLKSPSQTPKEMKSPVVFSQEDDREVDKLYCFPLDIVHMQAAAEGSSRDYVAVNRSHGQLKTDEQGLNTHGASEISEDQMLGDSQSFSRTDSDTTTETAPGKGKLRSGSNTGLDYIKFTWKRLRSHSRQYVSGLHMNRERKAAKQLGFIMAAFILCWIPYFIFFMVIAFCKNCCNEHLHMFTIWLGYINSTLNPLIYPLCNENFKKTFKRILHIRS

histamine H1 antagonist activity (histamine H1)	IC50 (human CCR-3)	Kd [1]	Compound
histamine H1 antagonists	11 nM	–	CCc1nnc(NC(=O)NCCCN2CC(Cc3ccc(Cl)cc3)C2)s1 [Example 190, 1-{3-[3-(4-chloro-benzyl)-azetidin-1-yl]-propyl}-3-(5-ethyl-[1,3,4]thiadiazol-2-yl)-urea]
–	7 nM	–	COc1cc(NC(=O)N[C@H](CO)CCN2CC(Oc3ccc(Cl)cc3)C2)cc(OC)c1 [Example 26, 1-{(S)-3-[3-(4-Chloro-phenoxy)-azetidin-1-yl]-1-hydroxymethyl-propyl}-3-(3,5-dimethoxy-phenyl)-urea]
–	6 nM	–	CCc1cc(NC(=O)N[C@H](CO)CCN2CC(Oc3ccc(Cl)cc3)C2)n(C)n1 [Example 88, 1-{(S)-3-[3-(4-Chloro-phenoxy)-azetidin-1-yl]-1-hydroxymethyl-propyl}-3-(5-ethyl-2-methyl-2H-pyrazol-3-yl)-urea]
–	7 nM	–	CCc1nnc(NC(=O)N[C@H](CO)CCN2CC(Oc3ccc(Cl)cc3)C2)s1 [Example 99, 1-{(S)-3-[3-(4-Chloro-phenoxy)-azetidin-1-yl]-1-hydroxymethyl-propyl}-3-(5-ethyl-[1,3,4]thiadiazol-2-yl)-urea]
–	5 nM	–	Cn1nc(C2CC2)cc1NC(=O)N[C@H](CO)CCN1CC(Oc2ccc(Cl)cc2)C1 [Example 83, 1-{(S)-3-[3-(4-Chloro-phenoxy)-azetidin-1-yl]-1-hydroxymethyl-propyl}-3-(5-cyclopropyl-2-methyl-2H-pyrazol-3-yl)-urea]
–	–	0.0589 ± 0.0187 nM	O=C1c2ccccc2CCC1CNCCc1ccc(O)c(I)c1 (centres unmarked) [[^125I]-HEAT]
–	22 nM	–	COc1cc(NC(=O)N[C@@H](CCN2CC(Oc3ccc(Cl)cc3)C2)COC(C)=O)cc(OC)c1 [Example 122, Acetic acid (S)-4-[3-(4-chloro-phenoxy)-azetidin-1-yl]-2-[3-(3,5-dimethoxy-phenyl)-ureido]-butyl ester]
